Test results taken from patent publication US20190153538A1, “GENE EXPRESSION BIOMARKERS FOR PERSONALIZED CANCER CARE TO EPIGENETIC MODIFYING AGENTS” (Oryzon Genomics, S.A., priority 2015, published 2019).
Counter-ions that a name gives are not always drawn.

Tests used:
[1] = tested on: 19 small cell lung cancer cell lines; test: Cell response to LSD1 inhibition: compound potency determination in SCLC cell line panel; type: cell-based; conditions: 4 days culture
Description: The compound potency determination was performed by culturing 19 small cell lung cancer cell lines […] for 4 days at 37 degrees C. at 5% CO2 in humidified incubators in the presence of serially diluted (trans)-N1-((1R,2S)-2-phenylcyclopropyl)cyclohexane-1,4-diamine bis-hydrochloride.
As a positive control for cytotoxicity the Hsp90 inhibitor 17-N-allylamino-17-demethoxygeldanamycin (17-AAG, a geldanamycin analogue) was used as positive control in serial dilution. Each of the cell lines was propagated and tested in distinct optimized media as recommended by ATCC or cell line source.
Small cell lung cancer cell lines can be categorized as “classic” or “variant”, based on their enzymatic activities, cellular morphologies, and growth phenotypes (Desmond et al., Cancer Res (1985) 45(6):2913-2923; Shoemaker R. H., Nature Reviews Cancer […] 6:813-823). Classic cells lines express elevated levels of L-dopa decarboxylase, bombesin-like immunoreactivity, neuron-specific enolase, and the brain isozyme of creatine kinase; variant cell lines continue to express neuron-specific enolase and the brain isozyme of creatine kinase, but have undetectable levels of L-dopa decarboxylase and bombesin-like immunoreactivity. Unlike classic cell lines, some variant cell lines are amplified for and have increased expression of the c-myc (MYC)oncogene.
Depending on their responses to (trans)-N1-((1R,2S)-2-phenylcyclopropyl)cyclohexane-1,4-diamine bis-hydrochloride, cell lines are classified as either “sensitive” [5], defined as having EC50<0.05 μM, or “resistant”, defined as having EC50>=0.05 μM [R].

H510A xenograft = test: In vivo tumor growth inhibition, NCI-H510A xenograft model; parameters: species or system athymic nude mice; conditions: 40 μg per kg five days on/two days off, after 21 days of dosing, compared to untreated controls
Description: 7-8-week old athymic nude mice animals were injected with 5×10^6 H510A cells resuspended in 100 μL of 1:1 mixture of Matrigel® matrix (Corning Inc., Tewksbury/MA, C. S. Hughes et al., Proteomics (2010) 10(9):1886-90) and PBS. Tumors were staged at 200-300 mm^3 animals and distributed into dosing groups. (trans)-N1-((1R,2S)-2-phenylcyclopropyl)cyclohexane-1,4-diamine was administered at a dose of 40 μg per kg (upk) five days on/two days off until end of study. Tumor volume was measure biweekly using a digital caliber. The study was concluded when mean tumor volume within control group reached 2000 mm^3 or 28 days post-staging. Statistical analysis was performed using unpaired t-test.

N[C@H]1CC[C@H](N[C@@H]2C[C@H]2c2ccccc2)CC1 [(trans)-N1-((1R,2S)-2-phenylcyclopropyl)cyclohexane-1,4-diamine bis-hydrochloride]
Cell-based response, classic versus variant SCLC cell lines ([1]; p-value 0.0055): greater in classic SCLC cell lines compared to variant SCLC cell lines
variant cell lines [V] that are resistant ([1]; resistant = EC50>=0.05 μM): 7 out of 8
classic cell lines [C] that are sensitive ([1]; sensitive = EC50<0.05 μM): 9 out of 11

N[C@H]1CC[C@H](N[C@@H]2C[C@H]2c2ccccc2)CC1 [(trans)-N1-((1R,2S)-2-phenylcyclopropyl)cyclohexane-1,4-diamine]
tumor growth inhibition (H510A xenograft): 34%
